Data: patent US6306879A, “Stable aqueous solution of 3-(1-oxo-1,3-dihydroisoindol-2-yl)-piperidine-2-6-dione” (Gruenenthal GmbH, priority 1999, dated 2001)

Assays:
[1] = system: TNF-α production of LPS-activated monocytes; test: TNF-α production of LPS-activated monocytes (sandwich ELISA); assay type: cell-based; conditions: LPS-activated human monocytes
Procedure: (§1) In order to investigate the immunomodulatory efficacy of the solutions produced, human monocytes were isolated from peripheral blood mononuclear cells (PBMCs) and were activated with bacterial LPS (lipopolysaccharide). The concentration of TNF-α and IL-12 in the supernatant liquors from all cell cultures was determined by means of sandwich ELISAs (Biosource Europe, Fleurus, Belgium).

[2] = Spontaneous hydrolysis of EM 12 in aqueous solution; assay type: physicochemical
[3] = Stability testing of the EM 12 solution over 2 weeks; assay type: physicochemical; conditions: after 2 weeks; 200 μg/ml in 5% glucose, pH 5.5, room temperature
Description: The solution was stored at room temperature. The pH of the final solution was 5.5.
Portions of the solutions were repeatedly taken as samples for analysis over a period of 2 weeks.

[4] = system: IL-12 production of LPS-activated monocytes; test: IL-12 production of LPS-activated monocytes (sandwich ELISA); assay type: cell-based; conditions: LPS-activated human monocytes
Procedure: as §1

[5] = system: cutaneous lupus erythematodes, pyoderma gangrenosum, urogenital ulcers in Bechet's syndrome, ulcerations in those infected with HIV; conditions: without resulting in general immunosuppression; cited from earlier work
[6] = system: severe aphthous stomatitis; conditions: cited from earlier work
[7] = Arch. Pharm. 321, 371 (1988); cited from earlier work

Row | spontaneous hydrolysis ([2]; aqueous EM 12 solution, pH less than or equal to 5.5) | EM 12 present in solution after storage [3] | SMILES | TNF-α concentration in supernatant ([1]; EM 12 2 μg/ml) [pg/mL] | TNF-α concentration in supernatant ([1]; EM 12 10 μg/ml) [pg/mL] | tendency to undergo spontaneous hydrolysis ([2]; aqueous solutions) | biological efficacy after storage [3] | IL-12 concentration in supernatant ([4]; EM 12 2 μg/ml) [pg/mL] | IL-12 concentration in supernatant ([4]; EM 12 10 μg/ml) [pg/mL] | efficacy [5] | efficacy vs classical immunosuppressants [6] | solubility in water [7]
1 | does not occur | still present | O=C1CCC(N2Cc3ccccc3C2=O)C(=O)N1 (racemic) [EM 12, 3-(1-oxo-1,3-dihydroisoindol-2-yl)-piperidine-2,6-dione] | 9915 | 9548 | tendency of EM 12 to undergo spontaneous hydrolysis | retained its full biological efficacy | 528 | 464 | – | – | –
2 | – | – | O=C1CCC(N2C(=O)c3ccccc3C2=O)C(=O)N1 (centres unmarked) [Thalidomide, 2-(2,6-dioxo-piperidin-3-yl)-isoindole-1,3-dione] | – | – | – | – | – | – | good efficacy | superior | low
